Test results taken from ChEMBL document CHEMBL1201862, “PubChem BioAssay data set” (2004).
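Cells were grown in 96-well plates and exposed to each compound for 48 hours at five concentrations; endpoints were interpolated linearly between bracketing concentrations, or set to the highest concentration if not reached. Abbreviation: GI50, concentration required for 50% inhibition of growth.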 The source made the active and inactive calls. Cut-off read from the data, not from the text of the source: active = GI50 up to about 1.1 µM and inactive = higher.

Tests used:
Assay in all cases: growth of human tumour cells (NCI), 48 h
[1] = system: UACC-257
[2] = system: DMS-114
[3] = system: KM12
[4] = system: U-251
[5] = system: RPMI-8226
[6] = system: 786-0
[7] = system: NCI-H23
[8] = system: SNB-75
[9] = system: COLO 205
[10] = system: SK-MEL-28
[11] = system: RXF 393
[12] = system: SK-MEL-5
[13] = system: HCT-15
[14] = system: ACHN
[15] = system: LOX IMVI
[16] = system: DLD-1
[17] = system: LXFL 529
[18] = system: TK-10
[19] = system: IGROV-1
[20] = system: SK-OV-3
[21] = system: HL-60
[22] = system: SW-620
[23] = system: SF-268
[24] = system: K562
[25] = system: UACC-62
[26] = system: OVCAR-5
[27] = system: CCRF-CEM
[28] = system: SN12C
[29] = system: HCT-116
[30] = system: SF-295
[31] = system: HT-29
[32] = system: SF-539
[33] = system: KM-20L2
[34] = system: OVCAR-3
[35] = system: SNB-19
[36] = system: OVCAR-8
[37] = system: OVCAR-4
[38] = system: NCI-H226
[39] = system: M14
[40] = system: NCI-H460
[41] = system: A549
[42] = system: HOP-92
[43] = system: MOLT-4
[44] = system: HOP-62
[45] = system: M19-MEL
[46] = system: SK-MEL-2
[47] = system: Malme-3M
[48] = system: EKVX
[49] = system: UO-31
[50] = system: HCC 2998
[51] = system: CAKI-1
[52] = system: SR
[53] = system: NCI-H522
[54] = system: A498
[55] = system: HOP-18

Compound: NC(Cc1ccccc1)C(=O)OCN1C(=O)C2C3C=CC(C2C1=O)C1C2C(=O)N(COC(=O)C(N)Cc4ccccc4)C(=O)C2C31 (stereo not given)
- GI50 [1]: 23.2 µM (inactive)
- GI50 [2]: 16.1 µM (inactive)
- GI50 [3]: 20.7 µM (inactive)
- GI50 [4]: 17.3 µM (inactive)
- GI50 [5]: 18.7 µM (inactive)
- GI50 [6]: 20.7 µM (inactive)
- GI50 [7]: 19.9 µM (inactive)
- GI50 [8]: 26.2 µM (inactive)
- GI50 [9]: 17.9 µM (inactive)
- GI50 [10]: 18.6 µM (inactive)
- GI50 [11]: 22.1 µM (inactive)
- GI50 [12]: 18.2 µM (inactive)
- GI50 [13]: 17.6 µM
- GI50 [14]: 26.5 µM (inactive)
- GI50 [15]: 18.7 µM (inactive)
- GI50 [16]: 26.6 µM (inactive)
- GI50 [17]: 20.5 µM (inactive)
- GI50 [18]: 39.2 µM (inactive)
- GI50 [19]: 23.9 µM (inactive)
- GI50 [20]: 27.9 µM (inactive)
- GI50 [21]: 32.2 µM (inactive)
- GI50 [22]: 23.3 µM (inactive)
- GI50 [23]: 17.4 µM (inactive)
- GI50 [24]: 29.6 µM (inactive)
- GI50 [25]: 20.7 µM (inactive)
- GI50 [26]: 35.5 µM (inactive)
- GI50 [27]: 22.8 µM (inactive)
- GI50 [28]: 20.8 µM (inactive)
- GI50 [29]: 23 µM (inactive)
- GI50 [30]: 41.7 µM (inactive)
- GI50 [31]: 31.8 µM (inactive)
- GI50 [32]: 22.5 µM (inactive)
- GI50 [33]: 23.9 µM (inactive)
- GI50 [34]: 28.4 µM (inactive)
- GI50 [35]: 43.1 µM (inactive)
- GI50 [36]: 20.2 µM (inactive)
- GI50 [37]: 23.3 µM (inactive)
- GI50 [38]: 27.7 µM (inactive)
- GI50 [39]: 19.5 µM (inactive)
- GI50 [40]: 16.3 µM (inactive)
- GI50 [41]: 23.2 µM (inactive)
- GI50 [42]: 41.8 µM (inactive)

Compound: Nc1ccc2c(c1)Oc1c(F)c(F)cc3c(=O)c(C(=O)O)cn-2c13
- GI50 [43]: 24 µM (inactive)
- GI50 [2]: > 100 µM (inactive)
- GI50 [3]: 23.6 µM (inactive)
- GI50 [4]: 34.2 µM (inactive)
- GI50 [5]: 25.2 µM (inactive)
- GI50 [6]: 28.1 µM (inactive)
- GI50 [7]: 64.1 µM (inactive)
- GI50 [44]: 31.7 µM (inactive)
- GI50 [9]: 45 µM (inactive)
- GI50 [10]: 40.3 µM (inactive)
- GI50 [11]: 43.8 µM (inactive)
- GI50 [12]: 17.1 µM (inactive)
- GI50 [13]: 46.2 µM
- GI50 [45]: 34.9 µM (inactive)
- GI50 [16]: 43.9 µM (inactive)
- GI50 [46]: 80.2 µM (inactive)
- GI50 [17]: 41.5 µM (inactive)
- GI50 [18]: 38.1 µM (inactive)
- GI50 [19]: 38.6 µM (inactive)
- GI50 [20]: > 100 µM (inactive)
- GI50 [47]: 45.9 µM (inactive)
- GI50 [21]: 38.9 µM (inactive)
- GI50 [22]: 41.3 µM (inactive)
- GI50 [23]: > 10 µM (inactive)
- GI50 [24]: 59.6 µM (inactive)
- GI50 [25]: 31.3 µM (inactive)
- GI50 [48]: > 100 µM (inactive)
- GI50 [26]: > 100 µM (inactive)
- GI50 [27]: 33 µM (inactive)
- GI50 [28]: 39.1 µM (inactive)
- GI50 [29]: 24.2 µM (inactive)
- GI50 [31]: 35.2 µM (inactive)
- GI50 [49]: 27.3 µM (inactive)
- GI50 [50]: > 100 µM (inactive)
- GI50 [51]: 32.1 µM (inactive)
- GI50 [32]: 39.2 µM (inactive)
- GI50 [52]: 34.6 µM (inactive)
- GI50 [33]: 53.6 µM (inactive)
- GI50 [53]: 29.9 µM (inactive)
- GI50 [34]: 22.1 µM (inactive)
- GI50 [35]: 35.2 µM (inactive)
- GI50 [36]: 40.2 µM (inactive)
- GI50 [37]: 40.1 µM (inactive)
- GI50 [39]: 81.5 µM (inactive)
- GI50 [54]: 4 µM (inactive)
- GI50 [41]: 32.9 µM (inactive)
- GI50 [55]: 51.5 µM (inactive)
- GI50 [42]: 25.1 µM (inactive)
